In patent US8163724B2, “Glucocorticosteroids, processes for their preparation, pharmaceutical compositions containing them and their use in therapy” (AstraZeneca AB, priority 2007, dated 2012) one finds IC50 data, which are given here for seven molecules.

Usually IC50 stands for the concentration needed to halve the response being measured.

Molecules are shown by their SMILES.

This experiment deals with T1, recombinant human GR (Homo sapiens, UniProt P04150).
T1 construct: purchased Panvera/Invitrogen P2812 (kit P2893)
T1 sequence (P04150 1-777): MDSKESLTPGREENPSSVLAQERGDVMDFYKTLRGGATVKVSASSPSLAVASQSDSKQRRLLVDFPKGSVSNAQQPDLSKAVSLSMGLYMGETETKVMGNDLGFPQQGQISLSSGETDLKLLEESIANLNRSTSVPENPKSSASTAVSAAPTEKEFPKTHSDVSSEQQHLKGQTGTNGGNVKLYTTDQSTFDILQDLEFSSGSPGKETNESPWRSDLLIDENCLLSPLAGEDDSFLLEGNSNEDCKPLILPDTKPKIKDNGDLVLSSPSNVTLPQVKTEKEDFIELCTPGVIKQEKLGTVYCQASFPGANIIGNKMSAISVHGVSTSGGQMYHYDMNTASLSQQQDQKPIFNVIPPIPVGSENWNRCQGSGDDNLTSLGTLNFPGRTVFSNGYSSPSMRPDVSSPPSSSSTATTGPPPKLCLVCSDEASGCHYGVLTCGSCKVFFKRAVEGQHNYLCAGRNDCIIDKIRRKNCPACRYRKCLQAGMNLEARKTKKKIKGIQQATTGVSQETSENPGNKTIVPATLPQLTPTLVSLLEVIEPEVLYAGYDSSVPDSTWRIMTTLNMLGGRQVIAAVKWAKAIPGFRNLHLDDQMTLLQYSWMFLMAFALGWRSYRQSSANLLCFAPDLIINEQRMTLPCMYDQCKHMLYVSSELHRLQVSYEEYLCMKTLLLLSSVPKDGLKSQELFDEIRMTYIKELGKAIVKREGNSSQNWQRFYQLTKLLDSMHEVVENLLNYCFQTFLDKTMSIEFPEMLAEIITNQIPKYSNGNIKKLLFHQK
In words: Human Glucocorticoid Receptor (GR) Assay (fluorescence polarization, Panvera/Invitrogen kit). It counts as binding. As to conditions: fluorescence polarization; GS Red tracer; 2 hours at room temperature; 100% control 10 μM Dexamethasone; read-out: Inhibition of GR binding, IC50. Put shortly: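 Fluorescence polarization competition with recombinant GR and GS Red fluorescent ligand plus stabilizing peptide and DTT in potassium phosphate/sodium molybdate/EDTA buffer with DMSO. Incubated 2 hours at room temperature in the dark; 0% control DMSO, 100% control 10 μM dexamethasone.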
In general terms: Polarisation of emitted light reports the rotation of a fluorescent probe.

Turning to `CCC(=O)O[C@]1(C(=O)SCCC#N)CC[C@H]2[C@@H]3CCC4=Cc5c(cnn5-c5ccc(F)cc5)C[C@]4(C)[C@H]3[C@@H](O)C[C@@]21C` [Example 16, (1R,3aS,3bS,10aR,10bS,11S,12aS)-{[(2-Cyanoethyl)thio]carbonyl}-7-(4-fluoro-phenyl)-11-hydroxy-10a,12a-dimethyl-1,2,3,3a,3b,4,5,7,10,10a,10b,11,12,12a-tetradecahydrocyclopenta[5,6]naphtho[1,2-f]indazol-1-yl propanoate], the IC50 is 3.4 nM.

In the case of `COCC(=O)O[C@]1(C(=O)SCC#N)CC[C@H]2[C@@H]3CCC4=Cc5c(cnn5-c5ccc(F)nc5)C[C@]4(C)[C@@]3(F)[C@@H](O)C[C@@]21C` [Example 205, (1R,3aS,3bS,10aS,10bR,11S,12aS)-1-{[(Cyanomethyl)sulfanyl]carbonyl}-10b-fluoro-7-(6-fluoropyridin-3-yl)-11-hydroxy-10a,12a-dimethyl-1,2,3,3a,3b,4,5,7,10,10a,10b,11,12,12a-tetradecahydrocyclopenta[5,6]naphtho[1,2-f]indazol-1-yl methoxyacetate], the IC50 came to 1.4 nM.

With `CC(=O)O[C@]1(C(=O)CO)CC[C@H]2[C@@H]3CCC4=Cc5c(cnn5-c5ccc(F)cc5)C[C@]4(C)[C@H]3[C@@H](O)C[C@@]21C` [Example 122, (1R,3aS,3bS,10aR,10bS,11S,12aS)-7-(4-Fluorophenyl)-11-hydroxy-1-(hydroxyacetyl)-10a,12a-dimethyl-1,2,3,3a,3b,4,5,7,10,10a,10b,11,12,12a-tetradecahydrocyclopenta[5,6]naphtho[1,2-f]indazol-1-yl acetate], the IC50 was 1.3 nM.

`CSC(=O)[C@@]1(O)CC[C@H]2[C@@H]3CCC4=Cc5c(cnn5-c5ccc(F)nc5)C[C@]4(C)[C@H]3[C@@H](O)C[C@@]21C` [Example 165, S-Methyl(1R,3aS,3bS,10aR,10bS,11S,12aS)-7-(6-fluoropyridin-3-yl)-1,11-dihydroxy-10a,12a-dimethyl-1,2,3,3a,3b,4,5,7,10,10a,10b,11,12,12a-tetradecahydrocyclopenta[5,6]naphtho[1,2-f]indazole-1-carbothioate]: the IC50 is 3.8 nM.

Turning to `Cn1cccc1C(=O)O[C@]1(C(=O)SCCO)CC[C@H]2[C@@H]3CCC4=Cc5c(cnn5-c5ccc(F)cc5)C[C@]4(C)[C@H]3[C@@H](O)C[C@@]21C` [Example 178, (1R,3aS,3bS,10aR,10bS,11S,12aS)-7-(4-Fluorophenyl)-11-hydroxy-1-{[(2-hydroxyethyl)thio]carbonyl}-10a,12a-dimethyl-1,2,3,3a,3b,4,5,7,10a,10b,11,12,12a-tetradecahydrocyclopenta[5,6]naphtho[1,2]-indazol-1-yl 1-methyl-1H-pyrrole-2-carboxylate], the IC50 worked out at 7.6 nM.

`C=CCOCc1cc(-n2ncc3c2C=C2CC[C@@H]4[C@H]([C@@H](O)C[C@@]5(C)[C@H]4CC[C@]5(OC(=O)c4ccco4)C(=O)SCC#N)[C@@]2(C)C3)ccc1F` [Example 77, (1R,3aS,3bS,10aR,10bS,11S,12aS)-1-{[(Cyanomethyl)thio]carbonyl}-7-{4-fluoro-3-[(prop-2-en-1-yloxy)methyl]phenyl}-11-hydroxy-10a,12a-dimethyl-1,2,3,3a,3b, 4,5,7,10,10a,10b,11,12,12a-tetradecahydrocyclopenta[5,6]naphtho[1,2-f]indazol-1-yl furan-2-carboxylate]: the IC50 was 22 nM.

For the molecule `C[C@]12Cc3cnn(-c4ccc(F)cc4)c3C=C1CC[C@@H]1[C@@H]2[C@@H](O)C[C@@]2(C)[C@H]1CC[C@]2(OC(=O)c1nccs1)C(=O)SCCO` [Example 40, (1R,3aS,3bS,10aR,10bS,11S,12aS)-7-(4-Fluorophenyl)-11-hydroxy-1-{[(2-hydroxy-ethyl)thio]carbonyl}-10a,12a-dimethyl-1,2,3,3a,3b,4,5,7,10,10a,10b,11,12,12a-tetradecahydrocyclopenta[5,6]naphtho[1,2-f]indazol-1-yl 1,3-thiazole-2-carboxylate], the IC50 stood at 2.9 nM.
